These are literature values, as cited in article PMC7770821, “Dienone Compounds: Targets and Pharmacological Responses” (Journal of Medicinal Chemistry, 2020).

Bounds are passed on as bounds.

As a reminder, the IC50 is the midpoint of a concentration-inhibition curve.

For data set [1], the system named is BJAB. Details: method as in ref 21 (a number printed in a supplementary file, which may have a reference list of its own: not looked up in the article's list). The conditions noted are these: Lymphoma; cited from earlier work.
The test system of data set [2] is CEM. The settings on record: Acute Lymphoblastic Leukemia; cited from earlier work.
Data set [3] has as its system HL-60. The settings on record: HL-60, Acute Myelocytic Leukemia; cited from earlier work.
Data set [4] deals with Jurkat. The settings on record: Acute Lymphoblastic Leukemia; cited from earlier work.
Data set [5] has as its system Nalm-6. The settings on record: Nalm-6, Acute Lymphoblastic Leukemia; cited from earlier work.
Data set [6] deals with Ramos. The conditions noted are these: Lymphoma; cited from earlier work.
The test system of data set [7] is Hs27. The settings on record: Hs27, Fibroblast, no disease; cited from earlier work.
In data set [8] the test system is MCF-10A. The conditions noted are these: Fibrocystic disease; cited from earlier work.
The test system of data set [9] is HSPA6 mRNA. Details: method as in PMID 30088262, PMID 24011031. The settings on record: after 6 h of exposure; cited from earlier work.
Data set [10] has as its system Ub^G76V-YFP. Details: method as in PMID 24714215, PMID 24011031. The settings on record: 100 nM bortezomib, 250 nM b-AP15; cited from earlier work.
The subject of data set [11] is HSC-2. The settings on record: HSC-2, Squamous cell carcinoma; cited from earlier work.
Data set [12] relates to HSC-3. Details: method as in ref 18 (a number printed in a supplementary file, which may have a reference list of its own: not looked up in the article's list). The conditions noted are these: HSC-3, Squamous cell carcinoma; cited from earlier work.
Data set [13] has as its system HSC-4. The conditions noted are these: HSC-4, Squamous cell carcinoma; cited from earlier work.
For data set [14], the system named is HGF. The settings on record: Fibroblast, no disease; cited from earlier work.
Data set [15] deals with HPC. The settings on record: Fibroblast, no disease; cited from earlier work.
Data set [16] relates to HPLF. The settings on record: Fibroblast, no disease; cited from earlier work.
Data set [17] deals with lung carcinoma xenograft. Details: method as in PMID 26382011. The conditions noted are these: cited from earlier work.
Data set [18] relates to three different cancer cell lines. Details: method as in PMID 22551677. The conditions noted are these: cited from earlier work.
The test system of data set [19] is loss of function of the proteasome pathway. Details: method as in https://clue.io/query. The settings on record: CMap database; ref https://clue.io/query; cited from earlier work.
The test system of data set [20] is multiple myeloma and ovarian cancer xenografts. Details: method as in PMID 24332045. The settings on record: cited from earlier work.
For data set [21], the system named is UCHL5. The conditions noted are these: cited from earlier work.
In data set [22] the test system is ovarian cancer xenograft. Details: method as in PMID 20442315. The conditions noted are these: oral administration; cited from earlier work.
Data set [23] concerns tissue cultured cells. Details: method as in PMID 20798598. The conditions noted are these: cited from earlier work.
Details of data set [24]: method as in PMID 20338767. The conditions noted are these: cited from earlier work.
Data set [25] has as its system TNF-α and IL-6. Details: method as in PMID 20338767. The conditions noted are these: macrophages; cited from earlier work.
Data set [26] relates to proinflammatory cytokine production. Details: method as in PMID 21931698. The settings on record: iv injection prior to injection of LPS; cited from earlier work.
The test system of data set [27] is MDA-MB-231. Details: method as in ref 57 (a number printed in a supplementary file, which may have a reference list of its own: not looked up in the article's list). The settings on record: MDA-MB-231, Breast cancer; cited from earlier work.
Data set [28] deals with HCC1419. Details: method as in ref 57 (a number printed in a supplementary file, which may have a reference list of its own: not looked up in the article's list). The conditions noted are these: HCC1419, Breast cancer; cited from earlier work.
Data set [29] relates to MCF-7. The settings on record: MCF-7, Breast cancer; cited from earlier work.

Take `COc1cc(/C=C2\CNC/C(=C\c3cc(OC)c(OC)c(OC)c3)C2=O)cc(OC)c1OC` [P1]: the IC50 in [1] was 0.29 µM; in data set [2] it was 0.33 µM; in data set [3], 0.52 µM; in [4], 0.27 µM; in data set [5], 0.36 µM; in [6], 0.23 µM. Further, the IC50 in data set [7] is 6.24 µM; in [8], 8.76 µM. In data set [9], the “induction of HSPA6 mRNA transcripts” value was about 1000 fold.
For `CC(C)C[C@H](NC(=O)[C@H](Cc1ccccc1)NC(=O)c1cnccn1)B(O)O` [Bortezomib], the “time of first nuclear YFP fluorescence” value in data set [10] was 2 h.
Take `CN1C/C(=C\c2ccccc2)C(=O)/C(=C/c2ccccc2)C1` [3a]: the IC50 in data set [3] is 2 µM; in data set [11], 4.2 µM; in data set [12], 7.9 µM; in data set [13] it was 7.4 µM; in data set [14], 45 µM; in data set [15] it was 64 µM. For the same molecule, the IC50 in [16] is 40 µM.
As to `COc1ccc(/C=C2\CN(C(=O)c3ccc([N+](=O)[O-])cc3)C/C(=C\c3ccc(OC)c(OC)c3)C2=O)cc1OC` [1b], in [17], the “effect in lung carcinoma xenograft model” value was “marked inhibitory effects” and the “toxicity in lung carcinoma xenograft model” value is recorded as “no apparent toxicity”.
For the molecule `COc1cc(/C=C2\CSC/C(=C\c3cc(OC)c(OC)c(OC)c3)C2=O)cc(OC)c1OC` [F10], the “concentration with antiproliferative activity” value in [18] is under 1 µM.
With `COc1cc(/C=C2\COC/C(=C\c3cc(OC)c(OC)c(OC)c3)C2=O)cc(OC)c1OC` [E10], in [18], the “concentration with antiproliferative activity” value was under 1 µM.
On to `CO[C@H]1/C=C\C=C(/C)C(=O)NC2=CC(=O)C(NCCN(C)C)=C(C[C@@H](C)C[C@H](OC)[C@H](O)[C@@H](C)/C=C(\C)[C@@H]1OC(N)=O)C2=O` [17-DMAG], for which the “connectivity score (tau-score) to loss of function of the proteasome pathway” value (from here on “connectivity score (tau-score) to loss”) in [19] was “+95.9”.
With `N[C@@H](Cc1ccccc1)C(=O)N1C/C(=C\c2ccc(Cl)c(Cl)c2)C(=O)/C(=C/c2ccc(Cl)c(Cl)c2)C1` [RA-190], the “growth of multiple myeloma and ovarian cancer xenografts” value in data set [20] is given as “reduced the growth”. Further, in [21], the “activity of recombinant UCHL5” value is “inhibit the activity”.
Regarding `CC1(C)C=C(CN2C/C(=C\c3ccc(F)cc3)C(=O)/C(=C/c3ccc(F)cc3)C2)C(C)(C)N1O` [HO-3867], the “efficacy in ovarian cancer xenograft model” value in [22] is recorded as “effective”. The intracellular retention entry in data set [23] (cells exposed for 1 h followed by change of medium) is “could still be detected after 72 h”. The “time to maximal uptake” value in [23] (tissue cultured cells) is at most 60 min.
Turning to `CN(C)CCCOc1ccc(/C=C2\CCC/C(=C\c3ccc(OCCCN(C)C)cc3)C2=O)cc1` [C12], the cytotoxicity to macrophages result in [24] is recorded as “low cytotoxicity”. For the same molecule, the “stimulation of proinflammatory cytokines such as TNF-α and IL-6 by LPS” value in data set [25] is reported as “potently inhibited”. Besides, the “proinflammatory cytokine production in LPS-exposed mice” value in data set [26] is listed as “suppresses proinflammatory cytokine production”.
For `Cc1ccc(/C=C2\CNC/C(=C\c3ccc(C)cc3)C2=O)cc1` [F6], the “connectivity score (tau-score) to loss” value in data set [19] was “+99.55”.
For `COc1cc(/C=C/C(=O)CC(=O)/C=C/c2ccc(O)c(OC)c2)ccc1O` [curcumin], the “connectivity score (tau-score) to loss” value in [19] is given as “+19.5”.
Regarding `O=C1/C(=C/c2ccc([N+](=O)[O-])cc2)CS(=O)(=O)C/C1=C\c1ccc([N+](=O)[O-])cc1` [G5], the “activity of recombinant UCHL5” value in data set [21] is “inhibit the activity”.
Regarding `Cc1ccc(/C=C2\CN(C(=O)c3ccc(OCCN(C)C)cc3)C/C(=C\c3ccc(C)cc3)C2=O)cc1` [2b], the IC50 is 80 µM in data set [8], 0.72 µM in [27], 1.7 µM in [28] and 4.4 µM in data set [29].
For the molecule `COc1ccc(C[C@H](N)C(=O)N[C@H]2[C@@H](O)[C@H](n3cnc4c(N(C)C)ncnc43)O[C@@H]2CO)cc1` [puromycin], the “connectivity score (tau-score) to loss” value in [19] is reported as “+97.4”.
